Results: PubChem BioAssay (NCI)
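Results reflect a 48-hour exposure of cells in 96-well plates to compound at five concentrations. Definition used: TGI = concentration required for complete inhibition of growth.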

What was measured:
Experiment in all cases: inhibition of tumour cell growth, NCI panel, 48 h
786-0 renal = system: 786-0 renal
A498 renal = system: A498 renal
A549 NSCLC = system: A549 NSCLC
ACHN renal = system: ACHN renal
CAKI-1 renal = system: CAKI-1 renal
CCRF-CEM leukemia = system: CCRF-CEM leukemia
COLO 205 colon = system: COLO 205 colon
DLD-1 colon = system: DLD-1 colon
DMS 114 small cell lung = system: DMS 114 small cell lung
DMS 273 small cell lung = system: DMS 273 small cell lung
EKVX NSCLC = system: EKVX NSCLC
HCC-2998 colon = system: HCC-2998 colon
HCT-116 colon = system: HCT-116 colon
HCT-15 colon = system: HCT-15 colon
HL-60(TB) leukemia = system: HL-60(TB) leukemia
HOP-18 NSCLC = system: HOP-18 NSCLC
HOP-62 NSCLC = system: HOP-62 NSCLC
HT29 colon = system: HT29 colon
IGROV1 ovarian = system: IGROV1 ovarian
K-562 leukemia = system: K-562 leukemia
KM12 colon = system: KM12 colon
KM20L2 colon = system: KM20L2 colon
LOX IMVI melanoma = system: LOX IMVI melanoma
LXFL 529 NSCLC = system: LXFL 529 NSCLC
M14 melanoma = system: M14 melanoma
M19-MEL melanoma = system: M19-MEL melanoma
MALME-3M melanoma = system: MALME-3M melanoma
MOLT-4 leukemia = system: MOLT-4 leukemia
NCI-H226 lung = system: NCI-H226 lung
NCI-H23 lung = system: NCI-H23 lung
NCI-H460 lung = system: NCI-H460 lung
NCI-H522 lung = system: NCI-H522 lung
OVCAR-3 ovarian = system: OVCAR-3 ovarian
OVCAR-4 ovarian = system: OVCAR-4 ovarian
OVCAR-5 ovarian = system: OVCAR-5 ovarian
OVCAR-8 ovarian = system: OVCAR-8 ovarian
RPMI-8226 leukemia = system: RPMI-8226 leukemia
RXF 393 renal = system: RXF 393 renal
RXF-631 renal = system: RXF-631 renal
SF-268 CNS = system: SF-268 CNS
SF-295 CNS = system: SF-295 CNS
SF-539 CNS = system: SF-539 CNS
SK-MEL-2 melanoma = system: SK-MEL-2 melanoma
SK-MEL-28 melanoma = system: SK-MEL-28 melanoma
SK-MEL-5 melanoma = system: SK-MEL-5 melanoma
SK-OV-3 ovarian = system: SK-OV-3 ovarian
SN12C renal = system: SN12C renal
SNB-19 CNS = system: SNB-19 CNS
SNB-75 CNS = system: SNB-75 CNS
SNB-78 CNS = system: SNB-78 CNS
SR leukemia = system: SR leukemia
SW-620 colon = system: SW-620 colon
TK-10 renal = system: TK-10 renal
U251 CNS = system: U251 CNS
UACC-257 melanoma = system: UACC-257 melanoma
UACC-62 melanoma = system: UACC-62 melanoma
UO-31 renal = system: UO-31 renal
XF 498 CNS = system: XF 498 CNS
HOP-92 NSCLC = system: HOP-92 NSCLC

Work on `COC(=O)C(Cc1nc2ccc(Cl)cc2[nH]c1=O)C(=O)C(=O)Nc1cc(C)ccc1C` (stereo unspecified) yielded a TGI (786-0 renal) greater than 100 µM, a TGI (A498 renal) greater than 100 µM and a TGI (A549 NSCLC) greater than 100 µM. It also gave a TGI (ACHN renal) greater than 100 µM, a TGI (CAKI-1 renal) greater than 100 µM and a TGI (CCRF-CEM leukemia) greater than 100 µM. For the same compound, the TGI (COLO 205 colon) was greater than 100 µM, the TGI (DLD-1 colon) was greater than 100 µM and the TGI (DMS 114 small cell lung) was greater than 100 µM. For the same compound, the TGI (DMS 273 small cell lung) was greater than 100 µM, the TGI (EKVX NSCLC) was greater than 100 µM and the TGI (HCC-2998 colon) was greater than 100 µM. The TGI (HCT-116 colon) was greater than 100 µM, the TGI (HCT-15 colon) was greater than 100 µM and the TGI (HL-60(TB) leukemia) was greater than 100 µM. For the same compound, the TGI (HOP-18 NSCLC) was greater than 100 µM, the TGI (HOP-62 NSCLC) was greater than 100 µM and the TGI (HT29 colon) was greater than 100 µM. It also gave a TGI (IGROV1 ovarian) greater than 100 µM, a TGI (K-562 leukemia) greater than 100 µM and a TGI (KM12 colon) greater than 100 µM. The TGI (KM20L2 colon) was greater than 100 µM, the TGI (LOX IMVI melanoma) was greater than 100 µM and the TGI (LXFL 529 NSCLC) was greater than 100 µM. For the same compound, the TGI (M14 melanoma) was greater than 100 µM, the TGI (M19-MEL melanoma) was greater than 100 µM and the TGI (MALME-3M melanoma) was greater than 100 µM. For the same compound, the TGI (MOLT-4 leukemia) was greater than 100 µM, the TGI (NCI-H226 lung) was greater than 100 µM and the TGI (NCI-H23 lung) was greater than 100 µM. It also gave a TGI (NCI-H460 lung) greater than 100 µM, a TGI (NCI-H522 lung) greater than 100 µM and a TGI (OVCAR-3 ovarian) greater than 100 µM. It also gave a TGI (OVCAR-4 ovarian) greater than 100 µM, a TGI (OVCAR-5 ovarian) greater than 100 µM and a TGI (OVCAR-8 ovarian) greater than 100 µM. The TGI (RPMI-8226 leukemia) was greater than 100 µM, the TGI (RXF 393 renal) was greater than 100 µM and the TGI (RXF-631 renal) was greater than 100 µM. The TGI (SF-268 CNS) was greater than 100 µM, the TGI (SF-295 CNS) was greater than 100 µM and the TGI (SF-539 CNS) was greater than 100 µM. For the same compound, the TGI (SK-MEL-2 melanoma) was greater than 100 µM, the TGI (SK-MEL-28 melanoma) was greater than 100 µM and the TGI (SK-MEL-5 melanoma) was greater than 100 µM. It also gave a TGI (SK-OV-3 ovarian) greater than 100 µM, a TGI (SN12C renal) greater than 100 µM and a TGI (SNB-19 CNS) greater than 100 µM. The TGI (SNB-75 CNS) was greater than 100 µM, the TGI (SNB-78 CNS) was greater than 100 µM and the TGI (SR leukemia) was greater than 100 µM. The TGI (SW-620 colon) was greater than 100 µM, the TGI (TK-10 renal) was greater than 100 µM and the TGI (U251 CNS) was greater than 100 µM. The TGI (UACC-257 melanoma) was greater than 100 µM, the TGI (UACC-62 melanoma) was greater than 100 µM and the TGI (UO-31 renal) was greater than 100 µM. It also gave a TGI (XF 498 CNS) greater than 100 µM.
In the case of `CCCCCCCCCCCCCCCCc1c(C(=O)OC)nc(NC#N)[nH]c1=O`, the TGI (786-0 renal) is reported as greater than 25 µM, the TGI (A498 renal) is reported as greater than 25 µM and the TGI (A549 NSCLC) is reported as greater than 25 µM. The TGI (ACHN renal) was greater than 25 µM, the TGI (CCRF-CEM leukemia) was greater than 25 µM and the TGI (COLO 205 colon) was greater than 25 µM. The TGI (DLD-1 colon) was greater than 25 µM, the TGI (DMS 114 small cell lung) was greater than 25 µM and the TGI (EKVX NSCLC) was greater than 25 µM. It also gave a TGI (HCC-2998 colon) greater than 25 µM, a TGI (HCT-116 colon) greater than 25 µM and a TGI (HCT-15 colon) greater than 25 µM. For the same compound, the TGI (HL-60(TB) leukemia) was greater than 25 µM, the TGI (HOP-18 NSCLC) was greater than 25 µM and the TGI (HOP-62 NSCLC) was greater than 25 µM. It also gave a TGI (HOP-92 NSCLC) greater than 25 µM, a TGI (HT29 colon) greater than 25 µM and a TGI (K-562 leukemia) greater than 25 µM. It also gave a TGI (KM12 colon) greater than 25 µM, a TGI (KM20L2 colon) greater than 25 µM and a TGI (LOX IMVI melanoma) greater than 25 µM. The TGI (LXFL 529 NSCLC) was greater than 25 µM, the TGI (M14 melanoma) was greater than 25 µM and the TGI (M19-MEL melanoma) was greater than 25 µM. For the same compound, the TGI (MALME-3M melanoma) was greater than 25 µM, the TGI (MOLT-4 leukemia) was greater than 25 µM and the TGI (NCI-H226 lung) was greater than 25 µM. It also gave a TGI (NCI-H23 lung) greater than 25 µM, a TGI (NCI-H460 lung) greater than 25 µM and a TGI (NCI-H522 lung) greater than 25 µM. For the same compound, the TGI (OVCAR-3 ovarian) was greater than 25 µM, the TGI (OVCAR-4 ovarian) was greater than 25 µM and the TGI (OVCAR-5 ovarian) was greater than 25 µM. The TGI (OVCAR-8 ovarian) was greater than 25 µM, the TGI (RPMI-8226 leukemia) was greater than 25 µM and the TGI (RXF 393 renal) was greater than 25 µM. The TGI (RXF-631 renal) was greater than 25 µM, the TGI (SF-268 CNS) was greater than 25 µM and the TGI (SF-295 CNS) was greater than 25 µM. The TGI (SF-539 CNS) was greater than 25 µM, the TGI (SK-MEL-2 melanoma) was greater than 25 µM and the TGI (SK-MEL-28 melanoma) was greater than 25 µM. It also gave a TGI (SK-OV-3 ovarian) greater than 25 µM, a TGI (SN12C renal) greater than 25 µM and a TGI (SNB-19 CNS) greater than 25 µM. It also gave a TGI (SNB-75 CNS) greater than 25 µM, a TGI (SNB-78 CNS) greater than 25 µM and a TGI (SW-620 colon) greater than 25 µM. For the same compound, the TGI (TK-10 renal) was greater than 25 µM, the TGI (U251 CNS) was greater than 25 µM and the TGI (UACC-257 melanoma) was greater than 25 µM. It also gave a TGI (UO-31 renal) greater than 25 µM and a TGI (XF 498 CNS) greater than 25 µM.
